From ChEMBL document CHEMBL5291721, “A preclinical secondary pharmacology resource illuminates target-adverse drug reaction associations of marketed drugs” (Nat Commun, 2023)

Columns and labels:
[1] = target: D(1A) dopamine receptor (Homo sapiens, UniProt P21728)
[2] = target: Vascular endothelial growth factor receptor 2 (Homo sapiens, UniProt P35968); assay type: functional
[3] = target: Mu-type opioid receptor (Homo sapiens, UniProt P35372)
[4] = target: Vasopressin V2 receptor (Homo sapiens, UniProt P30518)
Vasopressin V2 receptor, sequence (P30518 whole entry): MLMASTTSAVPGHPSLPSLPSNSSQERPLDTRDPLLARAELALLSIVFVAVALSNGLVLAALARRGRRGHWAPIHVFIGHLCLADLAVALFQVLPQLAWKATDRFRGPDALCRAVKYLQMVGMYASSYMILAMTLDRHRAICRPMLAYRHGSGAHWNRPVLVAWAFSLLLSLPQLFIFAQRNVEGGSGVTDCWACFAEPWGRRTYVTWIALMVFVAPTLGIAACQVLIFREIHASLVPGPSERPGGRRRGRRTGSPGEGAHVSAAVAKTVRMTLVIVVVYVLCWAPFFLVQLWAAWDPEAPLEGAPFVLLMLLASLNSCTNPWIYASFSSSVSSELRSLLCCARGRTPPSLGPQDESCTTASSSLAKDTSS

[5] = target: cGMP-inhibited 3',5'-cyclic phosphodiesterase 3A (Homo sapiens, UniProt Q14432); assay type: functional
cGMP-inhibited 3',5'-cyclic phosphodiesterase 3A, sequence (Q14432 whole entry): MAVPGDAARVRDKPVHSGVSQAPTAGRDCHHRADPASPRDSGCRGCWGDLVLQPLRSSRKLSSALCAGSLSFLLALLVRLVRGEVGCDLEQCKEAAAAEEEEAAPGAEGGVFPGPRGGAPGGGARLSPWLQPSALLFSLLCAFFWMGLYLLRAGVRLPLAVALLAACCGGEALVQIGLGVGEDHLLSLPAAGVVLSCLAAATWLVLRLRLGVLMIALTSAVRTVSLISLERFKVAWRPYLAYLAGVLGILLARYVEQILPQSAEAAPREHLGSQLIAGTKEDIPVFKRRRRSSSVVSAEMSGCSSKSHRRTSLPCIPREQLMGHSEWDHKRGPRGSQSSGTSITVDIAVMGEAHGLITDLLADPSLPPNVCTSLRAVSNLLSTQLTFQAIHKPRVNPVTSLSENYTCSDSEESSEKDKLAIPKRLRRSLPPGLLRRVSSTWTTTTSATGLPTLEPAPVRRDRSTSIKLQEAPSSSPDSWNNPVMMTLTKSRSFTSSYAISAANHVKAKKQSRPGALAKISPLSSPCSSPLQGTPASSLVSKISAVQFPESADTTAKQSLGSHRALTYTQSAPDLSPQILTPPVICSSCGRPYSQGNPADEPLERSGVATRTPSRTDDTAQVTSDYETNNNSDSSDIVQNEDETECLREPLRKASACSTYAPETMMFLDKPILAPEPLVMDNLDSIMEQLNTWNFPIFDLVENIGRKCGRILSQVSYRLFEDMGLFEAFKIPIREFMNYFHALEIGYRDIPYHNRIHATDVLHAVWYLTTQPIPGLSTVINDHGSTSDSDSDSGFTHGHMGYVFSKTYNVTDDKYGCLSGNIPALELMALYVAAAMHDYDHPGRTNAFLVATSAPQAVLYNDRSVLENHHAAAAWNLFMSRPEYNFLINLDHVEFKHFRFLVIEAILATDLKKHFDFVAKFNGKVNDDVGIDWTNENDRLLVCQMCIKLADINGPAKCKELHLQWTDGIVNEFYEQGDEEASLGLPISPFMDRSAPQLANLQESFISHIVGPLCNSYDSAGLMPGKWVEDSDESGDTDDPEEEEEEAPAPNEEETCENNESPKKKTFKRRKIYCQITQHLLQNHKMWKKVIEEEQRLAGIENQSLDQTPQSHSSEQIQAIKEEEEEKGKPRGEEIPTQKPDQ

[6] = target: T1, 5-hydroxytryptamine receptor 2C (Homo sapiens, UniProt P28335)
T1 sequence (P28335 whole entry): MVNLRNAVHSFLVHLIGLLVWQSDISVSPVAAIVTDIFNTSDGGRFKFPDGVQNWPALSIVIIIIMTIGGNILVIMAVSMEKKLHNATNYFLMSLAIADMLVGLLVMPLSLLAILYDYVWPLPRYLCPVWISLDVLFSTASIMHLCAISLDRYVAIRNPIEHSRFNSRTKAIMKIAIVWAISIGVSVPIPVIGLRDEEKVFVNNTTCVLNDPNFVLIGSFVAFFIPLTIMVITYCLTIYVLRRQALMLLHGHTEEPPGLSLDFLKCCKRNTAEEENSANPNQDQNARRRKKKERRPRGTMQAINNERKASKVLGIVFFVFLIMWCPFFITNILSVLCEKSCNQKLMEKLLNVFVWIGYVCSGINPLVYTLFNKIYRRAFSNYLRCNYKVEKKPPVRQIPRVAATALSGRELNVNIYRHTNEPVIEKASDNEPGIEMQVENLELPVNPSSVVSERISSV

[7] = target: 5-hydroxytryptamine receptor 2B (Homo sapiens, UniProt P41595); assay type: functional, cell-based
5-hydroxytryptamine receptor 2B, sequence (P41595 whole entry): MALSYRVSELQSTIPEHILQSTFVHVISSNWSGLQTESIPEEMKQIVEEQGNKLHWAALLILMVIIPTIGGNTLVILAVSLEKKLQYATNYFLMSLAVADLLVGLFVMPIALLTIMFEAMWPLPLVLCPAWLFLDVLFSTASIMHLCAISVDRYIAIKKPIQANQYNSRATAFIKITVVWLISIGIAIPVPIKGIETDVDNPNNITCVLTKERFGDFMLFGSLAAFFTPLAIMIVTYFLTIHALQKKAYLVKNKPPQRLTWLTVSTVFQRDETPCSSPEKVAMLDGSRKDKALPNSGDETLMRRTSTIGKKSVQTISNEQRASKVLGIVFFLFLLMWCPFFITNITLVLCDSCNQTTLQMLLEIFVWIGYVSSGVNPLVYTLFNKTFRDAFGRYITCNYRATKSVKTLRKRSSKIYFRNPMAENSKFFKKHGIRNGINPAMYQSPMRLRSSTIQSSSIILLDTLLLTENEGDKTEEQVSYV

[8] = target: T2, Glucocorticoid receptor (Homo sapiens, UniProt P04150)
T2 sequence (P04150 whole entry): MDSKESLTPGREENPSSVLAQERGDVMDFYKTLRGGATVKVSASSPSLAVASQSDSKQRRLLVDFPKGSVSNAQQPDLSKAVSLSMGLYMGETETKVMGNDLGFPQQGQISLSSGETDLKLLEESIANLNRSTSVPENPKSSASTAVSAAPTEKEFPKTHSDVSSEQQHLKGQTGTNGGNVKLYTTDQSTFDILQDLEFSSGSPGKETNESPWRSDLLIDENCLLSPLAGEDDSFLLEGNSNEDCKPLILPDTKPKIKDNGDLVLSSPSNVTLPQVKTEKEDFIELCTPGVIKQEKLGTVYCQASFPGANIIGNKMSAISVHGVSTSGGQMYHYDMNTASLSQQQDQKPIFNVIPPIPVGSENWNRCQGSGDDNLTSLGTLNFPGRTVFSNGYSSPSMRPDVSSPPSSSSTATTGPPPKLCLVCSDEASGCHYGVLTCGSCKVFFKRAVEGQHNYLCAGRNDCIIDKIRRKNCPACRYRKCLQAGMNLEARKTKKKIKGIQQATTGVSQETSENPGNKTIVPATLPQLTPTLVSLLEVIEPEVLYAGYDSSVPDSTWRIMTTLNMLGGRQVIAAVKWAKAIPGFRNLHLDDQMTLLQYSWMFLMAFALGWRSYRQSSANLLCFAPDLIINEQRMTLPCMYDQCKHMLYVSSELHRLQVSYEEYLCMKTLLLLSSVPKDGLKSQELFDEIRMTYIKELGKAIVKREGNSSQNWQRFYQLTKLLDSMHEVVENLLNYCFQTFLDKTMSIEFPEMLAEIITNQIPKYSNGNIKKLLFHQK

[9] = target: T3, Alpha-2C adrenergic receptor (Homo sapiens, UniProt P18825); assay type: functional
T3 sequence (P18825 whole entry): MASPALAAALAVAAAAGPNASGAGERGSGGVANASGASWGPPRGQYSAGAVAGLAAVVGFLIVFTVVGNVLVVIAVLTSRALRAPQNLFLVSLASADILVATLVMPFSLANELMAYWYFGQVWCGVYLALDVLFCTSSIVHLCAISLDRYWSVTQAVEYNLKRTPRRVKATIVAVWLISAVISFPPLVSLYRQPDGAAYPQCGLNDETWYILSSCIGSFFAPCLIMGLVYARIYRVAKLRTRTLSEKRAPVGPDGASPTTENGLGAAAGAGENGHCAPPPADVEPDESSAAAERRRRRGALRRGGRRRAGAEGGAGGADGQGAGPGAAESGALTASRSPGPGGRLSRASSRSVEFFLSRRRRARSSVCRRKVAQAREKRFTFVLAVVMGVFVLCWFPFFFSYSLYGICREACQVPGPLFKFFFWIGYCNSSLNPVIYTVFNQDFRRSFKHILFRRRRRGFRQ

[10] = target: T4, Gastrin/cholecystokinin type B receptor (Homo sapiens, UniProt P32239)
T4 sequence (P32239 whole entry): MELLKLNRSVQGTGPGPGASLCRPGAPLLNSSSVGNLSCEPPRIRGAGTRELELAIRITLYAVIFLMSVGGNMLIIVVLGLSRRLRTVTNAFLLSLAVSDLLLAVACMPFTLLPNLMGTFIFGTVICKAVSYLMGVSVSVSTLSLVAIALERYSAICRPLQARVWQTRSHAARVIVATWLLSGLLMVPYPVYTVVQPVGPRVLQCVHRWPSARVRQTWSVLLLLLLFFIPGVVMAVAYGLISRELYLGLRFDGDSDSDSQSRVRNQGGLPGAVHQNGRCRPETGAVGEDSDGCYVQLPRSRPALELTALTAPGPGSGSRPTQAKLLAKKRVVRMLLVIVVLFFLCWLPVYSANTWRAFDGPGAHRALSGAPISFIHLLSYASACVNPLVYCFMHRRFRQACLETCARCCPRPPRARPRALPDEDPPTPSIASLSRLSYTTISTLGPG

[11] = target: Cannabinoid receptor 1 (Homo sapiens, UniProt P21554); assay type: functional, cell-based
Cannabinoid receptor 1, sequence (P21554 whole entry): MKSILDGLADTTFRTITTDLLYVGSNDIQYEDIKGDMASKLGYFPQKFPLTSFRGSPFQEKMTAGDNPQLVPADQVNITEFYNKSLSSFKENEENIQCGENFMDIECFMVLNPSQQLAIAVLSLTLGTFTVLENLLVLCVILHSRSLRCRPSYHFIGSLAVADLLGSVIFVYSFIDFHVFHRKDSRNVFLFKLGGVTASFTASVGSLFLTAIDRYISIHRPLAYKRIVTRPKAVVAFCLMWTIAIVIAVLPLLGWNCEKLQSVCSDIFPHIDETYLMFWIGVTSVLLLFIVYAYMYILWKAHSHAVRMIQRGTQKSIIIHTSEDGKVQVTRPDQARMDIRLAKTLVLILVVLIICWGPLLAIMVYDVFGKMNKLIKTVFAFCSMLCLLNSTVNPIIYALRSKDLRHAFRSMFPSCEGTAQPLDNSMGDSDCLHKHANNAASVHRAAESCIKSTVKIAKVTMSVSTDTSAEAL
Also: assay procedure not described here.

Vascular endothelial growth factor receptor 2, sequence (P35968 whole entry): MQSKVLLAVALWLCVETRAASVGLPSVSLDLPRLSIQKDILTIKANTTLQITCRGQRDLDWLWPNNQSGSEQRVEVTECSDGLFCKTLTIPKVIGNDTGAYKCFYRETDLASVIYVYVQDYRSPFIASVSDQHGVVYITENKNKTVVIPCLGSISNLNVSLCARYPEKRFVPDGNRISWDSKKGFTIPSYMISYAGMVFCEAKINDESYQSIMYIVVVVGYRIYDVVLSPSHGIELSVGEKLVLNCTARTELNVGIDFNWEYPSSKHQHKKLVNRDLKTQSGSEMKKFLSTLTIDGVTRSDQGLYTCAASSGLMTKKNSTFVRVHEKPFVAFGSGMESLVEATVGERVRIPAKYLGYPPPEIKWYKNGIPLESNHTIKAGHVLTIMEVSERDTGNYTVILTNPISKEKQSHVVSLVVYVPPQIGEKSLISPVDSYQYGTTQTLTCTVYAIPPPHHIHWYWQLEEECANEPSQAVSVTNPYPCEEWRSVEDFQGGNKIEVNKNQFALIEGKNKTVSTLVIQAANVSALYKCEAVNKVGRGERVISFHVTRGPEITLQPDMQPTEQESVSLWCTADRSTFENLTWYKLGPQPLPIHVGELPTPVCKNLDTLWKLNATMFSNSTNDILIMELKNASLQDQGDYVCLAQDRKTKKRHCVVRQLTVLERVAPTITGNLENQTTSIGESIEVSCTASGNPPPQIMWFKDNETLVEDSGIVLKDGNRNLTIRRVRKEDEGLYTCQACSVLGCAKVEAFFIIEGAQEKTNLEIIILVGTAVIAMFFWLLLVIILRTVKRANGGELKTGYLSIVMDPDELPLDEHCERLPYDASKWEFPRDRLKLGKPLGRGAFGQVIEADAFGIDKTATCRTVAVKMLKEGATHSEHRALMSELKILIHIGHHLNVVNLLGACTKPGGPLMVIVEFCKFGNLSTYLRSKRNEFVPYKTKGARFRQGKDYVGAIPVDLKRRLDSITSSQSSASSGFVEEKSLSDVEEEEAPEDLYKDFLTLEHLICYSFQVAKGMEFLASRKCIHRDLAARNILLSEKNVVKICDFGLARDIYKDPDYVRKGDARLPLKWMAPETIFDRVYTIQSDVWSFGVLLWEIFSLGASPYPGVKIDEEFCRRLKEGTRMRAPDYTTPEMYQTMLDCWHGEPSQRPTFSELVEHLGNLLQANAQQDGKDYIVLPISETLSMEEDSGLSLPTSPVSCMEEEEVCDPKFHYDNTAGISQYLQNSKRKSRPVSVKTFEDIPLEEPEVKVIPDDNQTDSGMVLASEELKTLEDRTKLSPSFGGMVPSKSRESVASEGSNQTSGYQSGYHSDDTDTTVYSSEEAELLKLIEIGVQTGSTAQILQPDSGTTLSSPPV
D(1A) dopamine receptor, sequence (P21728 whole entry): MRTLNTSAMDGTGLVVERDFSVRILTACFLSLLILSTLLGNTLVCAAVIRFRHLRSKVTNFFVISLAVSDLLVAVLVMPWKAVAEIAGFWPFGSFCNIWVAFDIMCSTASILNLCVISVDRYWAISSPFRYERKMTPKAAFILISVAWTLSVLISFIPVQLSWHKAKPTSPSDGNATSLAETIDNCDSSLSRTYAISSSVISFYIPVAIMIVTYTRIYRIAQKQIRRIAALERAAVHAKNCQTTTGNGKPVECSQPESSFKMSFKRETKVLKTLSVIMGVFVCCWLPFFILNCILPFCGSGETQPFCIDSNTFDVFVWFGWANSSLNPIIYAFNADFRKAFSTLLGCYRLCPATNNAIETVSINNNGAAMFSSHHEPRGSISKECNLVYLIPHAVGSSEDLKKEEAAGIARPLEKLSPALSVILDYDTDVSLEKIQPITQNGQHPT
Mu-type opioid receptor, sequence (P35372 whole entry): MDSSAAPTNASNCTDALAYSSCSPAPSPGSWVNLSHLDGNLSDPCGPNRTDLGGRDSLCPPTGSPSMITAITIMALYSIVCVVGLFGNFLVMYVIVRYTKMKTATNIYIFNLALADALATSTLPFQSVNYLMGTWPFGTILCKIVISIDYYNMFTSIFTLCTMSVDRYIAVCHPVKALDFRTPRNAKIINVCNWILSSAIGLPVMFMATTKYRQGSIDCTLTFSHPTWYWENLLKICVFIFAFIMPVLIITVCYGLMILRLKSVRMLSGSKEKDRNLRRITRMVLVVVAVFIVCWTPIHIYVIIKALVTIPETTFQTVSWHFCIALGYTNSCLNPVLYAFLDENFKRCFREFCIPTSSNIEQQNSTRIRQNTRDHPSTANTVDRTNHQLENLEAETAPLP

SMILES | AC50 [1] [µM] | AC50 [2] [µM] | AC50 [3] [µM] | AC50 [4] [µM] | AC50 [5] [µM] | AC50 [6] [µM] | AC50 [7] [µM] | AC50 [8] [µM] | AC50 [9] [µM] | AC50 [10] [µM] | AC50 [11] [µM]
CC(C)Nc1cccnc1N1CCN(C(=O)c2cc3cc(NS(C)(=O)=O)ccc3[nH]2)CC1 [DELAVIRDINE] | > 30 | > 30 | – | – | – | – | – | – | – | – | –
CNC1(c2ccccc2Cl)CCCCC1=O (stereo unspecified) [KETAMINE] | > 30 | > 30 | – | – | – | – | – | – | – | – | –
CCN(CCO)CCCC(C)Nc1ccnc2cc(Cl)ccc12 (stereo unspecified) [HYDROXYCHLOROQUINE] | – | – | > 30 | > 10 | > 30 | > 30 | > 10 | > 10 | – | – | –
Cc1cccc(C)c1NC(=O)c1cc(S(N)(=O)=O)c(Cl)cc1O [XIPAMIDE] | > 30 | > 30 | – | – | – | – | – | – | – | – | –
C=CCOc1ccc(CC(=O)O)cc1Cl [ALCLOFENAC] | > 30 | > 30 | – | – | – | – | – | – | – | – | –
O=C(O)COC(=O)Cc1ccccc1Nc1c(Cl)cccc1Cl [ACECLOFENAC] | – | – | > 30 | > 30 | > 30 | > 30 | > 10 | – | > 10 | > 30 | > 30
CC(=O)SCC(Cc1ccccc1)C(=O)NCC(=O)OCc1ccccc1 (stereo unspecified) [RACECADOTRIL] | – | – | > 30 | > 30 | > 30 | > 30 | > 30 | > 30 | > 30 | > 30 | > 30
N#Cc1ccnc(N2C(=O)CC[C@H]2C(=O)N(c2cncc(F)c2)[C@H](C(=O)NC2CC(F)(F)C2)c2ccccc2Cl)c1 [IVOSIDENIB] | > 30 | > 30 | – | – | – | – | – | – | – | – | –
O=c1[nH]c2ccccc2n1CCN1CCN(c2cccc(C(F)(F)F)c2)CC1 [FLIBANSERIN] | 2.43 | > 30 | – | – | – | – | – | – | – | – | –
N=C(N)NCC1COc2ccccc2O1 (stereo unspecified) [GUANOXAN] | 23.4 | > 30 | – | – | – | – | – | – | – | – | –
CNC1(C)C2CCC(C2)C1(C)C (stereo unspecified) [MECAMYLAMINE] | – | – | > 30 | > 10 | > 30 | > 30 | > 10 | > 10 | > 10 | – | –
CC(C)(Oc1ccc(Cl)cc1)C(=O)NC(=O)NCN1CCOCC1 [PLAFIBRIDE] | > 30 | > 30 | – | – | – | – | – | – | – | – | –
NCCCCCC(=O)O [AMINOCAPROIC ACID] | – | – | > 30 | > 10 | > 30 | > 30 | > 10 | > 10 | > 10 | – | –
OCCOCCN1CCN(C(c2ccccc2)c2ccc(Cl)cc2)CC1 (stereo unspecified) [HYDROXYZINE] | – | – | > 30 | > 30 | > 30 | > 30 | > 10 | – | 2.3 | > 30 | > 30
C[C@H](CCC(=O)O)[C@H]1CC[C@H]2[C@@H]3[C@H](O)C[C@@H]4C[C@H](O)CC[C@]4(C)[C@H]3CC[C@]12C [CHENODIOL] | – | – | > 30 | – | > 30 | > 30 | > 30 | – | > 30 | – | > 30
C[C@]12CCC(=O)C=C1CC[C@H]1[C@@H]3CC[C@](O)(C(=O)CO)[C@@]3(C)C[C@H](O)[C@@]12F [FLUDROCORTISONE] | – | – | > 30 | > 30 | > 30 | > 30 | > 10 | – | > 10 | > 30 | > 30
COc1cc2c(cc1OC)C1CC(=O)C(CC(C)C)CN1CC2 (stereo unspecified) [TETRABENAZINE] | – | – | > 30 | – | > 30 | > 30 | > 30 | – | > 30 | – | > 30
C[C@H](Nc1ncnc2[nH]cnc12)c1cc2cccc(Cl)c2c(=O)n1-c1ccccc1 [DUVELISIB] | > 30 | – | > 30 | – | > 30 | > 30 | > 30 | – | > 30 | – | > 30
CC(C)(CO)c1cc2cc(NC(=O)C3(c4ccc5c(c4)OC(F)(F)O5)CC3)c(F)cc2n1C[C@@H](O)CO [TEZACAFTOR] | – | – | > 30 | – | > 30 | > 30 | > 30 | – | > 30 | – | > 30
CCOc1ccccc1OCCN[C@H](C)Cc1ccc(OC)c(S(N)(=O)=O)c1 [TAMSULOSIN] | – | – | 5.3 | > 30 | > 30 | > 30 | > 10 | – | 0.3 | > 30 | –
Nc1c2c(nc3ccccc13)CCCC2O (stereo unspecified) [VELNACRINE] | – | – | > 30 | – | > 30 | > 30 | > 30 | – | > 30 | – | > 30
C[C@H](CS)C(=O)N1CCC[C@H]1C(=O)O [CAPTOPRIL] | – | – | > 30 | > 30 | > 30 | > 30 | > 10 | > 30 | > 10 | > 30 | –
C=CC1=C(C(=O)O)N2C(=O)[C@@H](NC(=O)/C(=N\O)c3csc(N)n3)[C@H]2SC1 | – | – | > 30 | > 30 | > 30 | > 30 | > 10 | – | > 10 | > 30 | > 30
Cn1cnc2c(F)c(Nc3ccc(Br)cc3F)c(C(=O)NOCCO)cc21 [BINIMETINIB] | – | – | > 30 | – | > 30 | > 30 | > 30 | – | > 30 | – | > 30
CCC1(c2ccccc2)C(=O)NCNC1=O [PRIMIDONE] | – | – | > 30 | > 10 | > 30 | > 30 | > 10 | > 10 | > 10 | – | –
Nc1nnc(-c2cccc(Cl)c2Cl)c(N)n1 [LAMOTRIGINE] | – | – | > 30 | > 30 | 2.1 | > 30 | > 10 | – | > 10 | > 30 | > 30
CCC[C@@]1(CCc2ccccc2)CC(O)=C([C@H](CC)c2cccc(NS(=O)(=O)c3ccc(C(F)(F)F)cn3)c2)C(=O)O1 | – | – | > 30 | – | > 30 | > 30 | > 30 | – | 25 | – | > 30
CCOCC(O)COc1ccc(NC(=O)CC[S+](C)C)cc1 (stereo unspecified) | – | – | > 30 | – | > 30 | > 30 | > 30 | – | > 30 | – | > 30
